Earlier results as cited in article PMC3035168 (Chemistry & biology, 2010).
Residues, ends and D or L forms follow the SMILES beside them. *: point of attachment. Cbz = O=C(OCc1ccccc1)*; CH2F = FC*

Tests used:
[1] = mouse, in vivo
[2] = tested on: HD transgenic mouse models; conditions: ref Chen et al., 2000
striatal neurons = conditions: ref Schulz et al., 1998

SMILES: C[C@H](NC(=O)C(=O)Nc1ccccc1C(C)(C)C)C(=O)N[C@@H](CC(=O)O)C(=O)COc1c(F)c(F)cc(F)c1F [IDN-6556]
- toxicity [1]: nontoxic

SMILES: CN(C)c1ccc(O)c2c1C[C@H]1C[C@H]3[C@H](N(C)C)C(O)=C(C(N)=O)C(=O)[C@@]3(O)C(O)=C1C2=O [minocycline]
- effect on cell death ([2]; HD transgenic mouse models): delays cell death
- effect on caspase-1 and caspase-3 transcription ([2]; through indirect means): inhibits caspase-1 and caspase-3 transcriptional upregulation

SMILES: COC(=O)C[C@H](NC(=O)[C@H](C)NC(=O)[C@@H](NC(=O)OCc1ccccc1)C(C)C)C(=O)CF [zVAD-fmk] (Cbz-Val-Ala-Asp(OMe)-CH2F)
- protection against malonate-induced excitoxicity (striatal neurons): protected striatal neurons
